# Data from patent publication US20100317863A1, “Glucocorticoid Mimetics, Methods of Making Them, Pharmaceutical Compositions and Uses Thereof” (BOEHRINGER INGELHEIM INTERNATIONAL GMBH, priority 2007, published 2010).
# Target: T1, human glucocorticoid receptor (GR) complex (Homo sapiens, UniProt P04150)
# T1 construct: made in house; host or cells: insect expression system (baculovirus lysate)
# T1 sequence (P04150 1-777): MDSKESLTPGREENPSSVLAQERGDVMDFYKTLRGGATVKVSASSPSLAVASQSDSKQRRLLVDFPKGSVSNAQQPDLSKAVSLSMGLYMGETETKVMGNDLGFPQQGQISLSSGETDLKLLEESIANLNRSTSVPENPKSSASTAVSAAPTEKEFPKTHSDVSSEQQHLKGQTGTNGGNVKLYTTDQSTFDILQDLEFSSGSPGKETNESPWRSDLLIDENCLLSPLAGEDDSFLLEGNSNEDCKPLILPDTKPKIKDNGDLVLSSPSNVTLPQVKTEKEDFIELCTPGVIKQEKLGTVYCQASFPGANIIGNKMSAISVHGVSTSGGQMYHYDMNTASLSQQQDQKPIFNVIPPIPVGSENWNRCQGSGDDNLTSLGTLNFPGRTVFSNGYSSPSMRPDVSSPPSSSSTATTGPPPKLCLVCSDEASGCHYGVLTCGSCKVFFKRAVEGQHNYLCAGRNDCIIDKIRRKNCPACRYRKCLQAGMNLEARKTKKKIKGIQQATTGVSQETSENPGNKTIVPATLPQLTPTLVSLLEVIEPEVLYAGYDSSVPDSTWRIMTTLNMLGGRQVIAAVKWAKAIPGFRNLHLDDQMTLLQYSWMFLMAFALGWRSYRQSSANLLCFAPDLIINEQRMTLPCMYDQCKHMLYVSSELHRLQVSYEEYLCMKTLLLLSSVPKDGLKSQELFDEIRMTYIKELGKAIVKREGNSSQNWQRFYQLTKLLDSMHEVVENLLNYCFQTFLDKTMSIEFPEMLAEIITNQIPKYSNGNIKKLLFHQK
# Test: Glucocorticoid Receptor Competitive Binding Assay (fluorescence polarization)
# Settings: competition with TAMRA-labeled dexamethasone; potent activity
# Description: Compounds of the invention were evaluated for binding to the steroid receptor by a fluorescence polarization competitive binding assay. Detailed descriptions for preparation of recombinant glucocorticoid receptor (GR) complex used in the assay is described in U.S. Patent Application Publication No. US 2003/0017503, filed May 20, 2002, and incorporated herein by reference in its entirety. Preparation of the tetramethylrhodamine (TAMRA)-labeled dexamethasone probe was accomplished using a standard literature procedure (M. Pons et al., J. Steroid Biochem., 1985, 22, pp. 267-273).
# This assay uses fluorescence polarization (FP) to quantitate the ability of test compounds to compete with tetramethylrhodamine (TAMRA)-labeled dexamethasone for binding to a human glucocorticoid receptor (GR) complex prepared from an insect expression system. The assay buffer was: 10 mM TES, 50 mM KCl, 20 mM Na2MoO4.2H2O, 1.5 mM EDTA, 0.04% w/v CHAPS, 10% v/v glycerol, 1 mM dithiothreitol, pH 7.4. Test compounds were dissolved to 1 mM in neat DMSO and then further diluted to 10× assay concentration in assay buffer supplemented with 10% v/v DMSO. Test compounds were serially diluted at 10× assay concentrations in 10% DMSO-containing buffer in 96-well polypropylene plates. Binding reaction mixtures were prepared in 96-well black Dynex microtiter plates by sequential addition of the following assay components to each well: 15 μL of 10× test compound solution, 85 μL of GR-containing baculovirus lysate diluted 1:170 in assay buffer, and 50 μL of 15 nM TAMRA-labeled dexamethasone. Positive controls were reaction mixtures containing no test compound; negative controls (blanks) were reaction mixtures containing 0.7 μM to 2 μM dexamethasone. The binding reactions were incubated for 1 hour at room temperature and then read for fluorescence polarization in the LJL Analyst set to 550 nm excitation and 580 nm emission, with the Rhodamine 561 dichroic mirror installed. IC50 values were determined by iterative non-linear curve fitting of the FP signal data to a 4-parameter logistic equation.
row,SMILES,IC50
1,"CC[C@@H](Cn1cc(CC#N)c2ccccc21)NS(=O)(=O)c1c(C)cc(C)cc1C [N—[(S)-1-(3-Cyanomethylindol-1-ylmethyl)propyl]-2,4,6-trimethylbenzenesulfonamide]",≤ 100 nM
2,"CC[C@@H](Cn1c(C)cc2cc(Cl)ccc21)NS(=O)(=O)c1c(C)cc(C)cc1C [N—[(S)-1-(5-Chloro-2-methylindol-1-ylmethyl)propyl]-2,4,6-trimethylbenzenesulfonamide]",≤ 100 nM
3,"CC[C@@H](Cn1cc(C=O)c2cc(F)ccc21)NS(=O)(=O)c1c(C)cc(C)cc1C [N—[(S)-1-(5-Fluoro-3-formylindol-1-ylmethyl)propyl]-2,4,6-trimethylbenzenesulfonamide]",≤ 100 nM
4,"CC[C@@H](CN1CCCc2cc(Br)ccc21)NS(=O)(=O)c1c(C)cc(C)cc1C [N—[(S)-1-(6-Bromo-3,4-dihydro-2H-quinolin-1-ylmethyl)propyl]-2,4,6-trimethylbenzenesulfonamide]",≤ 100 nM
5,"CC[C@@H](CN1CCCc2cc(C#N)ccc21)NS(=O)(=O)c1c(C)cc(C)cc1C [N—[(S)-1-(6-Cyano-3,4-dihydro-2H-quinolin-1-ylmethyl)propyl]-2,4,6-trimethylbenzenesulfonamide]",≤ 100 nM
